In ChEMBL document CHEMBL1153678, “Bromobenzofurans : a new class of potent, non-peptide antagonists of angiotensin II” (Bioorg Med Chem Lett, 1991) one finds pKB data, which are given here for three compounds.

Molecules are shown by their SMILES.

For the test, the target named is T1, Type-1 angiotensin II receptor (Oryctolagus cuniculus) (UniProt P34976).
T1 sequence (whole entry): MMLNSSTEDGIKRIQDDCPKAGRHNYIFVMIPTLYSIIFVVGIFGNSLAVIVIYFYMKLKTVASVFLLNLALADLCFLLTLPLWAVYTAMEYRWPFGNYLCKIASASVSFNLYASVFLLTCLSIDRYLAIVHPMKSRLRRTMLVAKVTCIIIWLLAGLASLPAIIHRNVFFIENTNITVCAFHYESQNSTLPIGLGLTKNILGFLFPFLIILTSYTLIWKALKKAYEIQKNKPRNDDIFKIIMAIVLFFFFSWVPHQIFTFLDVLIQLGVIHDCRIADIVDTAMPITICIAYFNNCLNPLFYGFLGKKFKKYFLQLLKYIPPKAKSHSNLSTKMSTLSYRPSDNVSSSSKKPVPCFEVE
The test is described as follows: Angiotensin II receptor, type 1 antagonist activity in rabbit isolated thoracic aorta. It is filed as functional, tissue-based.
As usually defined, the pKB is the KB on a negative log10 scale, so that one unit is a factor of ten. Low values mean a large KB, high ones a small KB. `CCCCc1nc(Cl)c(C(=O)O)n1Cc1ccc(-c2ccccc2-c2nn[nH]n2)cc1` yielded a negative logarithm of the KB (pKB) of 10.6. The figure for `CCCCc1nc(Cl)c(CO)n1Cc1ccc(-c2ccccc2C(=O)O)cc1` is 6.9; for `CCCCc1nc(Cl)c(CO)n1Cc1ccc(-c2ccccc2-c2nnn[nH]2)cc1` it is 8.4.
